The results in this text go back to publication PMC5318439, “The Novel Toll-Like Receptor 2 Agonist SUP3 Enhances Antigen Presentation and T Cell Activation by Dendritic Cells” (Frontiers in Immunology, 2017).

The test system of one experiment is splenic B cells. As to the kind of experiment: Total IgM production by B cells in vitro. The settings on record: 200 nM, 3 or 5 days, ELISA; vs Pam3. Type of experiment: cell-based, mice. The text has this: Splenic DCs were purified as described previously ([37]). CD8^+ cDCs expanded by B16-Flt3L inoculation were enriched, and then CD8^+ cDCs were positively sorted by MACS technology (Miltenyi Biotec). Splenic B cells were purified through negative selection by Streptavidin-MicroBeads (Miltenyi Biotec 130-048-102) combined with different antibodies cocktail to exclude non-B cells. The antibodies cocktail was composed of biotinylated antibodies against CD4 (T cells and DCs) (eBioscience, clone GK1.5), CD8 (T cells and DCs) (eBioscience, clone 53-6.7), CD43 (T cells, monocytes, granulocytes) (eBioscience, clone eBioR2/60), and Ter119 (erythrocytes) (eBioscience, clone TER119). B cells were further purified through MACS LS column (Miltenyi Biotec 130-042-401).
Splenic DCs (5 × 10^5 cells/mL) were stimulated by Pam3 (200 nM), SUP3 (200 nM), or CpG ODN 1668 (20 nM; Adipogen IAX-200-001) in the GM-CSF (20 ng/mL) supplemented medium for indicated periods. […] Cytokines (IL-6, eBioscience 88-7064; TNFα, eBioscience 88-7324; IL-12p40, BioLegend 431604), chemokine (MIP1α, R&D Systems DY450-05), and total IgM (eBioscience, 88-50470) were quantified by ELISA kits following the instructions of manufacturers.
Figure 7 SUP3 promoted stronger B cell activation in vitro. […] (B) Supernatants were harvested 3 or 5 days post-stimulation, and total IgM in the supernatant was determined by ELISA. […]

For a further experiment, the target named is TLR2 (Homo sapiens, UniProt O60603). The experiment in a line: Affinity of TLR2 agonist for TLR2. Type of experiment: binding. The settings on record: compared with Pam3; Figure S3A. The text has this:
Pam3 is a lipopeptide and serves as a TLR2 agonist through binding to TLR2/TLR1 heterodimer. Although Pam3 is widely used as a TLR2 agonist, some intrinsic problems remain in detailed mechanism studies and drug development. The two ester groups of Pam3 can be easily hydrolyzed in plasma, and the hydroxyl group in serine could be readily oxidized in physiological conditions (Figure S1A in Supplementary Material). […] In addition, we displaced serine residue in Pam3 with glycine residue to eliminate this chiral center (Figures S1A,B in Supplementary Material). Since the third lysine residue in Pam3 is crucial for H bonding, we kept three lysine residues in the new molecule and removed the forth lysine residue to further reduce the molecular weight of the new TLR2 agonist, (2S,5S,8S,14R,18R)-2,5,8-tris(4-aminobutyl)-4,7,10,13,21-pentaoxo-14-palmitamido-18-((tetradecylcarbamoyl)oxy)-20-oxa-16-thia-3,6,9,12,22-pentaazahexatriacontan-1-oic acid. It is termed SUP3 (Figure 1A; Figures S1A,B in Supplementary Material). Chemical characterization of SUP3 by ^1H nuclear magnetic resonance and electrospray ionization mass spectrum analysis further confirm the structure (Figures S2A,B in Supplementary Material).

Where a SMILES comes first, the peptide text is derived from it. The star is where a group is joined. X1 = CCCCCCCCCCCCCCNC(=O)OC[C@H](C*)OC(=O)NCCCCCCCCCCCCCC; Palmitoyl = CCCCCCCCCCCCCCCC(=O)*

TLR2, sequence (O60603 21-784, species assumed): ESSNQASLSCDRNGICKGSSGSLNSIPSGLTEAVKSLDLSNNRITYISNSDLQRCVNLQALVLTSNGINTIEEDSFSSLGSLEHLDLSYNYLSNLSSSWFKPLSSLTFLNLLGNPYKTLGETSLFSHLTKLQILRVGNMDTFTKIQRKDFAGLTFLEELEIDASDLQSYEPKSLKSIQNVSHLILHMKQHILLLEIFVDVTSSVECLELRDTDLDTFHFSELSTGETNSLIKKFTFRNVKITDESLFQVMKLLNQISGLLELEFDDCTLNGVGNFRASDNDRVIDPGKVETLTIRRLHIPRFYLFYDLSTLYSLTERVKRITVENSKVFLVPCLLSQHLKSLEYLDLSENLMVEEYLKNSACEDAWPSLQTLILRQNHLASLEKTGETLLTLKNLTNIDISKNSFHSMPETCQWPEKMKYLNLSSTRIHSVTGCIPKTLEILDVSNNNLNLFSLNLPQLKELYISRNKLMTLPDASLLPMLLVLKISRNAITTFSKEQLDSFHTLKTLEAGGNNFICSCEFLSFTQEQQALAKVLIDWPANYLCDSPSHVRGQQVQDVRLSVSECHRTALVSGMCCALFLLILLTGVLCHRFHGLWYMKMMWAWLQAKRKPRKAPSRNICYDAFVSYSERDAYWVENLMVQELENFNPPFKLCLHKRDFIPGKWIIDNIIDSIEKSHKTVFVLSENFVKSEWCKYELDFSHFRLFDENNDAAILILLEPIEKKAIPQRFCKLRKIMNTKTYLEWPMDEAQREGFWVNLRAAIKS

As for `CCCCCCCCCCCCCCCC(=O)N[C@@H](CSC[C@@H](COC(=O)NCCCCCCCCCCCCCC)OC(=O)NCCCCCCCCCCCCCC)C(=O)NCC(=O)N[C@@H](CCCCN)C(=O)N[C@@H](CCCCN)C(=O)N[C@@H](CCCCN)C(=O)O` [SUP3, (2S,5S,8S,14R,18R)-2,5,8-tris(4-aminobutyl)-4,7,10,13,21-pentaoxo-14-palmitamido-18-((tetradecylcarbamoyl)oxy)-20-oxa-16-thia-3,6,9,12,22-pentaazahexatriacontan-1-oic acid] (Palmitoyl-C(X1)GKKK-OH), the “antigen-independent production of IgM by B cells” value in the experiment on splenic B cells was “more”. Moreover, the affinity entry at TLR2 is “comparable with Pam3”.
